Measurements from patent US11318157B2, “6-6 bicyclic aromatic ring substituted nucleoside analogues for use as PRMT5 inhibitors” (Janssen Pharmaceutica NV, priority 2015, dated 2022).
Where two headings read alike, the source gives them in different places.

Experiments:
PRMT5-MEP50 enzyme [1] = biological target: T1, PRMT5-MEP50 enzyme (Homo sapiens, UniProt O14744); test: In vitro assay 1a: high throughput mass spectrometer assay of SAH formation, 10 nM enzyme, 60 min; format: biochemical; conditions: averaged values, PRMT5-MEP50, 10 nM enzyme, read-out: pIC50 Assay 1a (converted)
T1 construct: One virus expresses full length human PRMT5 with Flag-tag at N-terminus; Flag (N); purchased Charles River (Argenta); host or cells: insect cells (Sf9), baculovirus co-infection
T1 sequence (O14744 whole entry): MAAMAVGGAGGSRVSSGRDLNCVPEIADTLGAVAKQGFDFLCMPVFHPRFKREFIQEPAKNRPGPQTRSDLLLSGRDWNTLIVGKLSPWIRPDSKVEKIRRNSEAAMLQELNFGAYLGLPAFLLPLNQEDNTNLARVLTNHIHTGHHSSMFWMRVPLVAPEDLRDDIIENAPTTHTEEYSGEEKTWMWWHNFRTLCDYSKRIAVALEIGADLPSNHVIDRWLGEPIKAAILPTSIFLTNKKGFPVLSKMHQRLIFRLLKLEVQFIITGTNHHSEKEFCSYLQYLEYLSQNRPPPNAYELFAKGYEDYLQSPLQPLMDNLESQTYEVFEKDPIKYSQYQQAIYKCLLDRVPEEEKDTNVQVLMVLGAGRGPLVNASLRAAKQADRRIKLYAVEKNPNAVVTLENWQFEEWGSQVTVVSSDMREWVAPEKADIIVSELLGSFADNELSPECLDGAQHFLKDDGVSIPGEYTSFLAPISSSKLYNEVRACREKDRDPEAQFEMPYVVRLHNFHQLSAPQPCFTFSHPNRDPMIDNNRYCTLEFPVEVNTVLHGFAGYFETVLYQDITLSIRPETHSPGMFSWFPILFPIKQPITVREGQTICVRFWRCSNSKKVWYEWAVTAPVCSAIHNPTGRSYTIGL
T1 sequence (Q9BQA1 whole entry partner): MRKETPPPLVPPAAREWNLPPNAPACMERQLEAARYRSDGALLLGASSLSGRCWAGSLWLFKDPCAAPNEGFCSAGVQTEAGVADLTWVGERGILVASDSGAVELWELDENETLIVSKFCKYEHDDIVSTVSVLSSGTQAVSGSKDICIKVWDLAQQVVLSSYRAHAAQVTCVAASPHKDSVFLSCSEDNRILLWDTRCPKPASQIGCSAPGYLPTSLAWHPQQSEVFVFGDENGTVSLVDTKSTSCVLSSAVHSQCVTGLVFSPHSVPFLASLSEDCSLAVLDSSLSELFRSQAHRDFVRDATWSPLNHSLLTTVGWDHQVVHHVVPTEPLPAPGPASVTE
From the text: (§1) Experimental Procedures In Vitro Assay (Assay 1a and 1b)
(§2) PRMT5-MEP50 enzyme was purchased from Charles River (Argenta). The enzyme complex was produced in insect cells (Sf9) infected simultaneously with two baculoviruses. One virus expresses full length human PRMT5 with Flag-tag at N-terminus, the second virus expresses full length MEP50 with His6-TEV cleavage at N-terminus. The protein was affinity purified using anti-Flag (M2) beads eluted with 3×FLAG peptide, followed by His-Select eluted with 0.5M imidazole. Eluted protein was then dialysed against tris-buffered saline (TBS) (pH 8.0) containing 20% glycerol and 3 mM dithiothreitol (DTT).
(§3) Full-length untagged human recombinant histone H2A (residues 1-130, Genbank Accession #NM_021052 MW=14.1 kDa) expressed in E. coli was purchased from Reaction Biology Corporation, Cat #HMT-11-146. Reagents used for making reaction buffer or stopping reaction were purchased including Tris base (Sigma Cat #T-1503), NaCl (Sigma Cat #RGF-3270), MgCl2 (Sigma Cat #M0250), DTTI (Invitrogen Cat #15508-013) and Formic Acid (Riedel deHaen, Cat #33015)
(§4) High Throughput Mass Spectrometer Assay
(§5) PRMT5 catalyzes the sequential methylations of the terminal nitrogen atoms on the guanidine groups of arginine residues within proteins using co-substrate S-adenosyl-L-methionine (AdoMet, SAM), forming mono-methyl (MMA), symmetric-dimethyl arginine (sDMA) and S-adenosyl-L-homocysteine (AdoHcy, SAH). The enzyme activity was determined by following the product SAH formation using high throughput mass spectrometry (Agilent Rapidfire 300 System coupled to a Sciex 4000 series QTrap® triple-quad MS/MS). The reaction buffer was 20 mM Tris-HCl, pH 8.5, 50 mM NaCl, 5 mM MgCl2 and 1 mM DTT. The reaction activity was stopped using 1% formic acid (final concentration).
(§6) The IC50 Studies were performed using eleven point dosing series made for each compound by serially diluted 1:2 in dimethyl sulfoxide (DMSO), with point 12 being a DMSO control. Compounds were first spotted to plates, and followed by addition of 2 μM SAM and 0.6 μM H2A (histone H2A) solution mixture. The same volume of enzyme solution was added to initiate the enzymatic reactions. The final concentrations of the reaction are at 1 μM SAM, 0.3 μM H2A and 10 nM enzyme (assay 1a) or 1.25 nM enzyme (assay 1b). The reaction was incubated at 30° C. for 60 minutes (min) when 10 nM enzyme was used and for 120 min when 1.25 nM enzyme was used. Subsequently, the reaction was quenched by addition of formic acid to a final concentration of 1%. The inhibitions of SAH formation in the presence of compounds were calculated as a percentage of the control relative to the uninhibited reaction as a function of inhibitor concentration. The data were fit as follows: Y=Bottom+(Top−Bottom)/(1+10^((log IC50−X)*h))
(§7) where IC50 is the inhibitor concentration (same unit as X) at 50% inhibition and h is the Hill slope. Y is percent of inhibition, X is log of compound concentration. Bottom and Top are the plateaus in same units as Y.

[2] = system: nuclear symmetric Arginine dimethylation in A549 cells; test: PD assay (assay 2): inhibition of nuclear symmetric Arginine dimethylation (SYM10 immunohistochemistry), 48 h; format: cell-based; conditions: for pIC50 Assay 2: averaged values; for IC50: Homo sapiens
Method: Experimental Procedure PD Assay (Assay 2)
A549 cells (ATCC, Cat #CCL-185) were cultured in Dulbecco's Modified Eagle's Medium (DMEM) (Sigma, Cat #D5796), supplemented with 10% Fetal Calf Serum (FCS) (HyClone™, Cat #SV30160.03), 100 mM Sodium Pyruvate (Sigma, Cat #S8636), 200 mM L-Glutamine (Sigma, Cat #G7513) and 50 mg/mL gentamycin (Gibco, Cat #15750-037).
Reagents used for buffers were purchased: Dulbecco's phosphate buffered saline (DPBS) without Ca/Mg (Sigma, Cat #D8537), phosphate buffered saline (PBS) 10× (Roche, Cat #11 666 789 001), Formalin solution 10% (Sigma, HT50-1-128-4L), Methanol 100% (Sigma, Cat #32213-2.5L), Triton X-100 (Acros, Cat #215680010), Bovine Serum Albumin (BSA) (Sigma, Cat #A2153), Alexa fluor 488 goat anti-rabbit antibody (Life Technologies, Cat #A11034), HCS CellMask Deep Red Stain (Life Technologies, Cat #H32721), Hoechst Stain (Life Technologies, Cat #33258), Anti-dimethyl-Arginine, sym (SYM10) antibody (Millipore, 07-412).
Immunohistochemistry Procedure
Cells were plated at 400 cells/40 μL/well in 384 well black μplates clear bottom (Perkin Elmer) and overnight incubated at 37° C., 5% CO2. […] 80 nL of the respective dilution of the compounds was added using the Labcyte POD 810 (Labcyte) reaching a final DMSO concentration of 0.2% in cell culture. After an incubation period of 48 h at 37° C. and 5% CO2, cells were fixed in 10% formalin solution for 15 min at room temperature and 20 min in ice-cold methanol, after which they were washed 3× in DPBS. Subsequently, the cells were blocked for 1 h in blocking buffer (PBS+1% BSA and 0.5% Triton X-100) and incubated overnight at 4° C. with the SYM10 antibody diluted 1/2000 in blocking buffer. The cells were washed 3× with washing buffer (PBS+0.1% Triton X-100) and incubated with the Alexa fluor 488 goat anti-rabbit antibody diluted 1/200 in blocking buffer for 1 h at room temperature. Subsequently, they were washed 3× with washing buffer and incubated for 30 min at room temperature with PBS containing a 1/5000 dilution of Hoechst Stain and a 1/5000 dilution of the HCS CellMask Deep Red Stain. After a final wash with PBS, the plates were imaged using the 10×W lens of the Opera® system (Perkin Elmer Life Sciences) using following settings (values in nm):
In the above equations, the following variable names are used: […]
In the above equations, the following controls were used for normalization: […]
Low control: minimum level of symmetrically dimethylated Arginines (cells treated with reference compound at 10 μM).
High control: maximum level of symmetrically dimethylated Arginines (DMSO treated cells).
IC50 and pIC50 (−log IC50) values were calculated using the appropriate software.
The pIC50 values in the Table below are averaged values (Co. No. means compound number; n.d. means not determined).

PRMT5-MEP50 enzyme [3] = biological target: T1, PRMT5-MEP50 enzyme; test: In vitro assay 1b: high throughput mass spectrometer assay of SAH formation, 1.25 nM enzyme, 120 min; format: biochemical; conditions: averaged values; PRMT5-MEP50, 1.25 nM enzyme, 120 min; read-out: pIC50 Assay 1b (converted)
From the text: as §1, §2, §3, §4, §5, §6, §7

[4] = PD assay, A549 cells, symmetric Arginine dimethylation
[5] = A549, averaged values, PD assay, A549 cells, symmetric Arginine dimethylation, read-out: pIC50 Assay 2 (converted)

SMILES	IC50 (PRMT5-MEP50 enzyme [1])	pIC50 Assay 2 [2, 4]	IC50 (PRMT5-MEP50 enzyme [3])	IC50 [2, 5]	IC50 ([2]; A549, read-out: pIC50 Assay 2 (converted))
Nc1ncnc2c1ccn2[C@@H]1O[C@H](COc2cc3ncccc3cc2I)[C@@H](O)[C@H]1O [Compound 3]	39.8 nM	–	158 nM	631 nM	–
Nc1nc(Cl)nc2c1ccn2[C@@H]1O[C@H](COc2ccc3cc(Cl)cnc3c2)[C@@H](O)[C@H]1O [Compound 4]	63.1 nM	–	200 nM	~617 nM	–
Nc1ncnc2c1ccn2[C@@H]1O[C@H](COc2ccc3ccccc3c2)[C@@H](O)[C@H]1O [Compound 9]	3160 nM	–	–	> 20000 nM	–
Nc1ncnc2c1ccn2[C@@H]1O[C@H](COc2cnc3cccnc3c2)[C@@H](O)[C@H]1O [Compound 14]	1260 nM	–	–	> 20000 nM	–
Nc1ncnc2c1ccn2[C@@H]1O[C@H](COc2ccc3nccnc3c2)[C@@H](O)[C@H]1O [Compound 15]	1000 nM	–	–	> 3980 nM	–
COc1cc2c(Cl)ccnc2cc1OC[C@H]1O[C@@H](n2ccc3c(N)ncnc32)[C@H](O)[C@@H]1O [Compound 36]	7940 nM	–	–	> 20000 nM	–
Cc1c(OC[C@H]2O[C@@H](n3ccc4c(N)ncnc43)[C@H](O)[C@@H]2O)ccc2cccnc12 [Compound 39]	2510 nM	–	–	2000 nM	–
Nc1ncnc2c1ccn2[C@@H]1O[C@H](CSc2ccc3cccnc3c2)[C@@H](O)[C@H]1O [Compound 48]	100 nM	–	–	398 nM	–
CNc1ncnc2c1ccn2[C@@H]1C[C@H](CCc2ccc3ccc(N)nc3c2)[C@@H](O)[C@H]1O [Compound 78]	1.26 nM	–	–	–	0.316 nM
COc1ncnc2c1ccn2[C@@H]1C[C@H](CCc2ccc3ccc(N)nc3c2)[C@@H](O)[C@H]1O [Compound 79]	0.398 nM	–	–	< 1.17 nM	–
Nc1nc2cc(CC[C@H]3C[C@@H](n4ccc5c(N)ncnc54)[C@H](O)[C@@H]3O)ccc2cc1Cl [Compound 81]	0.251 nM	–	–	0.2 nM	–
Nc1ncnc2c1ccn2[C@@H]1O[C@H](COc2ccc3cc(Br)cnc3c2Cl)[C@@H](O)[C@H]1O [Compound 94]	1000 nM	–	–	~1000 nM	–
Nc1nc2cc(CC[C@H]3C[C@@H](n4ccc5c(N)nc(Cl)nc54)[C@H](O)[C@@H]3O)ccc2cc1Cl [Compound 240]	–	–	< 0.2 nM	< 1.17 nM	–
Nc1nc2cc(CC[C@H]3C[C@@H](n4ccc5cncnc54)[C@H](O)[C@@H]3O)ccc2cc1Cl [Compound 242]	–	–	1 nM	< 1.17 nM	–
Nc1ncc2ccn([C@@H]3C[C@H](CCc4ccc5cc(Cl)c(N)nc5c4)[C@@H](O)[C@H]3O)c2n1 [Compound 243]	–	–	0.794 nM	< 1.17 nM	–
CNC(=O)c1ccc2ccc(OC[C@H]3O[C@@H](n4ccc5c(N)ncnc54)[C@H](O)[C@@H]3O)cc2n1 [Compound 246]	3160 nM	–	–	> 20000 nM	–
Nc1nc2cc(CC[C@H]3C[C@@H](n4ccc5nccnc54)[C@H](O)[C@@H]3O)ccc2cc1Cl [Compound 250]	–	–	31.6 nM	200 nM	–

The next lines start with results.

IC50 (PRMT5-MEP50 enzyme [1])	pIC50 Assay 2 [2, 4]	IC50 (PRMT5-MEP50 enzyme [3])	IC50 [2, 5]	SMILES	IC50 ([2]; A549, read-out: pIC50 Assay 2 (converted))
100 nM	6.5	–	–	CC(Oc1ccc2cccnc2c1)[C@H]1O[C@@H](n2ccc3c(N)ncnc32)[C@H](O)[C@@H]1O (single isomer, unassigned) [Compound 67]	–
2510 nM	~5.14	> 100000 nM	–	CC(Oc1ccc2cccnc2c1)[C@H]1O[C@@H](n2ccc3c(N)ncnc32)[C@H](O)[C@@H]1O (single isomer, unassigned) [Compound 68]	–
7.94 nM	–	25.1 nM	39.8 nM	Nc1ncnc2c1ccn2[C@@H]1O[C@H](COc2ccc3cc(Br)cnc3c2)[C@@H](O)[C@H]1O [Compound 2]	–
1260 nM	–	–	~17400 nM	Nc1ncnc2c1ccn2[C@@H]1O[C@H](COc2cccc3ccncc23)[C@@H](O)[C@H]1O [Compound 7]	–
2000 nM	–	–	6310 nM	Nc1ncnc2c1ccn2[C@@H]1O[C@H](COc2ccc3ccc(Cl)nc3c2)[C@@H](O)[C@H]1O [Compound 20]	–
251 nM	–	–	631 nM	Nc1ncnc2c1c(Br)cn2[C@@H]1O[C@H](COc2ccc3cccnc3c2)[C@@H](O)[C@H]1O [Compound 45]	–
31.6 nM	–	–	~151 nM	Nc1ncnc2c1ccn2[C@@H]1C[C@H](/C=C/c2ccc3cc(Cl)cnc3c2)[C@@H](O)[C@H]1O [Compound 57]	–
0.501 nM	–	–	< 1.17 nM	Nc1ccc2ccc(CC[C@H]3C[C@@H](n4ccc5cncnc54)[C@H](O)[C@@H]3O)cc2n1 [Compound 77]	–
63.1 nM	–	–	794 nM	Nc1ncnc2c1ccn2[C@@H]1O[C@H](COc2cc3ncc(Br)cc3cc2Cl)[C@@H](O)[C@H]1O [Compound 92]	–
–	–	10 nM	25.1 nM	CNc1ncnc2c1ccn2[C@@H]1O[C@H](CCc2ccc3cc(Br)c(N)nc3c2)[C@@H](O)[C@H]1O [Compound 239]	–
–	–	2.51 nM	< 1.17 nM	Nc1nc2cc(CC[C@H]3C[C@@H](n4ccc5cnc(Cl)nc54)[C@H](O)[C@@H]3O)ccc2cc1Cl [Compound 241]	–
–	–	50.1 nM	158 nM	Nc1nc2cc(CC[C@H]3C[C@@H](n4ccc5ncccc54)[C@H](O)[C@@H]3O)ccc2cc1Cl [Compound 248]	–
–	–	20 nM	501 nM	Nc1nc2cc(CC[C@H]3C[C@@H](n4ccc5cccnc54)[C@H](O)[C@@H]3O)ccc2cc1Cl [Compound 249]	–
20 nM	–	–	–	C=Cc1cnc2cc(OC[C@H]3O[C@@H](n4ccc5c(N)ncnc54)[C@H](O)[C@@H]3O)ccc2c1 [Compound 253]	–
